The structures appear in SMILES notation. Active and inactive are the calls of the source. The rule behind the calls is not given here.

This note sets out measurements from ChEMBL document CHEMBL4680353, “Synthesis, anticancer activity and molecular docking studies of N-deacetylthiocolchicine and 4-iodo-N-deacetylthiocolchicine derivatives” (Bioorg Med Chem, 2021).

The nature of assay [1]: Resistance index, ratio of IC50 for antiproliferative activity against human Lovo/DX cells to IC50 for antiproliferative activity against human LoVo cells. It is filed as functional.
Another assay has as its system A549. Nature of the assay: Antiproliferative activity against human A549 cells incubated for 72 hrs by SRB assay. It is filed as functional, cell-based. The note with it: A549, 72 h. Background: In SRB staining, fixed cells bind dye roughly in proportion to their protein.
The next assay has as its system BALB/3T3. Nature of the assay: Antiproliferative activity against mouse BALB/3T3 cells incubated for 72 hrs by SRB assay. It is filed as ADME, cell-based. The note with it: BALB/3T3, 72 h.
Assay [2] can be described thus: Antiproliferative activity against human ALL5 cells incubated for 120 hrs followed by MTT addition further incubated for 48 hrs. It is filed as functional, cell-based.
A short description of a further assay: cells. The note with it: Homo sapiens, LoVo/DX, 72 h. It is filed as functional, cell-based.
The subject of another assay is MCF7. Nature of the assay: Antiproliferative activity against human MCF-7 cells incubated for 72 hrs by SRB assay. The note with it: MCF7, 72 h.
For another assay, the system named is LoVo. As to the kind of experiment: Antiproliferative activity against human LoVo cells incubated for 72 hrs by SRB assay. It is filed as functional, cell-based.
Assay [3] concerns ALL5. Nature of the assay: Cell cycle arrest in human ALL-5 cells assessed as accumulation at sub-G1 phase after 24 hrs at 5 times of IC50 by propidium iodide staining-based flow cytometric analysis relative to control. It is filed as functional. In general terms: A flow cytometer gives signals particle by particle.
Assay [4] deals with ALL5. Nature of the assay: Induction of apoptosis in human ALL-5 cells assessed as increase in PARP cleavage at 43 nM incubated for 48 hrs by Western blot analysis relative to control. It is filed as functional, cell-based.
Assay [5] has as its system ALL5. As to the kind of experiment: Induction of apoptosis in human ALL-5 cells assessed as increase in PARP cleavage at 45 nM incubated for 48 hrs by Western blot analysis relative to control. It is filed as functional, cell-based.
The subject of assay [6] is ALL5. As to the kind of experiment: Induction of apoptosis in human ALL-5 cells assessed as increase in PARP cleavage at 23 nM incubated for 48 hrs by Western blot analysis relative to control. It is filed as functional, cell-based. (A western blot detects proteins with antibodies after separation by electrophoresis.)
In assay [7] the test system is ALL5. As to the kind of experiment: Induction of apoptosis in human ALL-5 cells assessed as increase in PARP cleavage at 0.2 uM incubated for 24 hrs by Western blot analysis relative to control.

Usually IC50 stands for the concentration that inhibits the measured activity by half. Consider `COc1c(I)c2c(c(OC)c1OC)-c1ccc(SC)c(=O)cc1[C@@H](N)CC2`, for which the “Ratio IC50” value in assay [1] came to 6.7. The IC50 is 866 nM with A549; 1420 nM with BALB/3T3; 135 nM in [2]; 844 nM in the assay “cells”; 1700 nM with MCF7; 126 nM in the assay on LoVo.

For the molecule `COc1cc2c(c(OC)c1OC)-c1ccc(SC)c(=O)cc1[C@@H](NC(=O)C(C)C)CC2`, the “Ratio IC50” value in assay [1] came to 19.3. Moreover, the IC50 with A549 turned out to be 15.8 nM; in the assay on BALB/3T3 it was 69.9 nM; in assay [2], 5.5 nM; in “cells”, 174 nM; in the assay with MCF7 it was 13.5 nM; with LoVo, 9 nM. In the assay with ALL5 [3], the result was Active.

As for `COc1c(I)c2c(c(OC)c1OC)-c1ccc(SC)c(=O)cc1[C@@H](NC(=O)C(C)C)CC2`, in assay [1], the “Ratio IC50” value is 13. Also, the half-maximal inhibitory concentration (IC50) in the assay on A549 amounted to 62.6 nM; in the assay on BALB/3T3, 69.7 nM; in assay [2], 19.9 nM; in the assay “cells”, 91.3 nM; in the assay on MCF7, 44.5 nM; in the assay with LoVo, 7 nM.

On to `COc1c(I)c2c(c(OC)c1OC)-c1ccc(SC)c(=O)cc1[C@@H](NC(C)=O)CC2`, for which the “Ratio IC50” value in [1] was 91.7. Moreover, the IC50 worked out at 8.7 nM in [2] and 7.4 nM in the assay with LoVo. Also, the outcome in the assay with ALL5 [3] was Active.

As for `COc1cc2c(c(OC)c1OC)-c1ccc(OC)c(=O)cc1[C@@H](NC(C)=O)CC2` [COLCHICINE], the result with ALL5 [4] was Active. Further, the IC50 with BALB/3T3 was found to be 106 nM; in [2] it was 8.6 nM.

For the molecule `COc1c(I)c2c(c(OC)c1OC)-c1ccc(OC)c(=O)cc1[C@@H](NC(C)=O)CC2`, the “Ratio IC50” value in [1] is recorded as 278. For the same molecule, the IC50 in the assay on A549 was 93.9 nM; with BALB/3T3, 135 nM; in assay [2] it was 15.5 nM; in the assay “cells” it was 2780 nM; in the assay with MCF7, 97.7 nM; in the assay with LoVo, 10.2 nM.

On to `CCCCCCCCCC(=O)N[C@H]1CCc2cc(OC)c(OC)c(OC)c2-c2ccc(SC)c(=O)cc21`, for which the “Ratio IC50” value in assay [1] is listed as 11.2. For the same molecule, the IC50 in the assay with A549 was found to be 13.3 nM; in the assay on BALB/3T3 it was 87.2 nM; in assay [2], 27.3 nM; in the assay “cells” it was 84.6 nM; in the assay with MCF7, 66.3 nM; in the assay on LoVo it was 7.6 nM.

In the case of `COc1c(I)c2c(c(OC)c1OC)-c1ccc(SC)c(=O)cc1[C@@H](NC(=O)CCCCl)CC2`, the “Ratio IC50” value in assay [1] came out at 13.5. In addition, the IC50 stood at 82.8 nM with A549; 87.8 nM in the assay with BALB/3T3; 47.5 nM in assay [2]; 529 nM in “cells”; 89.4 nM in the assay on MCF7; 39.2 nM in the assay with LoVo.

For `CCC(=O)N[C@H]1CCc2c(I)c(OC)c(OC)c(OC)c2-c2ccc(SC)c(=O)cc21`, the “Ratio IC50” value in assay [1] worked out at 23.3. Besides, the IC50 amounted to 11.4 nM in the assay on A549; 39.6 nM in the assay with BALB/3T3; 9 nM in [2]; 168 nM in the assay “cells”; 10.8 nM in the assay with MCF7; 7.2 nM in the assay on LoVo. Besides, in the assay with ALL5 [5], the outcome was Active.

In the case of `COCC(=O)N[C@H]1CCc2cc(OC)c(OC)c(OC)c2-c2ccc(SC)c(=O)cc21`, the “Ratio IC50” value in assay [1] is given as 16. Also, the IC50 turned out to be 13.5 nM with A549; 12 nM in the assay with BALB/3T3; 8.5 nM in assay [2]; 132 nM in the assay “cells”; 12.7 nM with MCF7; 8.2 nM with LoVo.

Turning to `CCC(=O)N[C@H]1CCc2cc(OC)c(OC)c(OC)c2-c2ccc(SC)c(=O)cc21`, in assay [1], the “Ratio IC50” value turned out to be 19.1. Also, the IC50 in the assay on A549 was determined as 13.2 nM; with BALB/3T3 it was 17.9 nM; in assay [2] it was 4.6 nM; in “cells” it was 163 nM; in the assay on MCF7, 12.4 nM; in the assay with LoVo, 8.5 nM. In the assay on ALL5 [6], the outcome was Active.

As to `COc1c(I)c2c(c(OC)c1OC)-c1ccc(SC)c(=O)cc1[C@@H](NC(=O)c1ccccc1)CC2`, in [1], the “Ratio IC50” value is listed as 10.2. Besides, the IC50 came to 13.3 nM in the assay on A549; 76.2 nM in the assay with BALB/3T3; 25.4 nM in assay [2]; 72.9 nM in “cells”; 47.5 nM in the assay on MCF7; 7.2 nM with LoVo.

With `COCC(=O)N[C@H]1CCc2c(I)c(OC)c(OC)c(OC)c2-c2ccc(SC)c(=O)cc21`, in [1], the “Ratio IC50” value is 13.2. The IC50 with A549 amounted to 10.5 nM; in the assay with BALB/3T3, 51.2 nM; in assay [2], 15 nM; in the assay “cells” it was 92.2 nM; with MCF7, 10.5 nM; in the assay with LoVo it was 7 nM.

`COc1cc2c(c(OC)c1OC)-c1ccc(SC)c(=O)cc1[C@@H](NC(=O)c1ccccc1)CC2`: in assay [1], the “Ratio IC50” value is 10.4. The IC50 with A549 came to 11.2 nM; in the assay with BALB/3T3, 21.6 nM; in assay [2], 5.7 nM; in the assay “cells” it was 57.9 nM; with MCF7 it was 11.2 nM; in the assay on LoVo, 5.6 nM.

With `CCN(CC)C(=O)N[C@H]1CCc2cc(OC)c(OC)c(OC)c2-c2ccc(SC)c(=O)cc21`, the “Ratio IC50” value in [1] was found to be 16. Moreover, the IC50 was 133 nM in the assay with A549; 88.2 nM in the assay with BALB/3T3; 17.4 nM in assay [2]; 1100 nM in the assay “cells”; 113 nM with MCF7; 69.1 nM with LoVo.

In the case of `COc1cc2c(c(OC)c1OC)-c1ccc(SC)c(=O)cc1[C@@H](NC(=O)CCCCl)CC2`, the “Ratio IC50” value in assay [1] stood at 12.2. Besides, the IC50 in the assay on A549 was 13.3 nM; in the assay with BALB/3T3, 20.2 nM; in [2], 5.9 nM; in “cells” it was 102 nM; with MCF7, 11.9 nM; in the assay with LoVo it was 8.4 nM. The outcome in the assay on ALL5 [3] was Active.

Consider `CCCCCCCCCC(=O)N[C@H]1CCc2c(I)c(OC)c(OC)c(OC)c2-c2ccc(SC)c(=O)cc21`, for which the “Ratio IC50” value in assay [1] was found to be 6.8. The IC50 in the assay with A549 amounted to 833 nM; in the assay with BALB/3T3 it was 305 nM; in assay [2], 615 nM; in the assay “cells”, 3870 nM; in the assay on MCF7, 846 nM; with LoVo it was 568 nM.

As for `CCN(CC)C(=O)N[C@H]1CCc2c(I)c(OC)c(OC)c(OC)c2-c2ccc(SC)c(=O)cc21`, the “Ratio IC50” value in [1] was 12.3. The IC50 in the assay on A549 came out at 81.3 nM; with BALB/3T3, 107 nM; in assay [2], 81.9 nM; in “cells”, 794 nM; in the assay with MCF7 it was 94.7 nM; in the assay on LoVo, 64.6 nM.

On to `COc1cccc2c1C(=O)c1c(O)c3c(c(O)c1C2=O)C[C@@](O)(C(=O)CO)C[C@@H]3O[C@H]1C[C@H](N)[C@H](O)[C@H](C)O1` [DOXORUBICIN], for which the results for the IC50 with A549 and in “cells” were 258 nM and 4750 nM, respectively. Besides, the outcome with ALL5 [7] was Active.
